Earlier results, collected in article PMC6958422 (Pharmaceuticals, 2019).

Experiments:
hA2B AR = target: T1, hA2B AR (Homo sapiens, UniProt P29275); settings: at 1µM, in comparison with NECA (1µM = 100%); cited from earlier work
T1 construct: expressed in transfected cells; host or cells: CHO cells
T1 sequence (P29275 1-332): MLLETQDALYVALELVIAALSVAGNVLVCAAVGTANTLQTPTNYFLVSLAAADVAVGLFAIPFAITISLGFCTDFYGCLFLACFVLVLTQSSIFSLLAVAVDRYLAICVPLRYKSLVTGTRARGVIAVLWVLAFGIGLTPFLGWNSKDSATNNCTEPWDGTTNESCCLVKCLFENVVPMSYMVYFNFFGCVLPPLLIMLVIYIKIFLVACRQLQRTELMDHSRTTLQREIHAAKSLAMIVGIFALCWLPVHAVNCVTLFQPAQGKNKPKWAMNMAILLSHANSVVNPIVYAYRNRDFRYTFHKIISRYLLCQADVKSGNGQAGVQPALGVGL

A2BAR = test system: A2BAR; design: method as in PMID 31132418; settings: rat CA1 hippocampus, cited from earlier work

N#Cc1c(N)nc(SCc2ncc[nH]2)c(C#N)c1-c1ccc(OCC2CC2)cc1 [Compound P453, 2-{[(1H-imidazol-2-yl)methyl]thio}-6-amino-4-[4-(cyclopropylmethoxy)phenyl]pyridine-3,5-dicarbonitrile]
Efficacy hA2B (cAMP assays) (hA2B AR): 70% | Effect on PPF (paired pulse facilitation) (A2BAR): decreases PPF | Effect on A1AR-mediated fEPSP inhibition during OGD (A2BAR; two-minute oxygen and glucose deprivation insult): delays A1AR-mediated fEPSP inhibition
